Results on four compounds are retold here after patent publication US8338423B2, “Compositions for the treatment of hyperphenylalaninemia” (Universidad de Zaragoza, priority 2007, dated 2012).

The target in experiment [1] is T1, PAH103-428 (catalytic domain) (Homo sapiens, UniProt P00439).
T1 construct: made in house; host or cells: E. coli
T1 sequence (P00439 103-428): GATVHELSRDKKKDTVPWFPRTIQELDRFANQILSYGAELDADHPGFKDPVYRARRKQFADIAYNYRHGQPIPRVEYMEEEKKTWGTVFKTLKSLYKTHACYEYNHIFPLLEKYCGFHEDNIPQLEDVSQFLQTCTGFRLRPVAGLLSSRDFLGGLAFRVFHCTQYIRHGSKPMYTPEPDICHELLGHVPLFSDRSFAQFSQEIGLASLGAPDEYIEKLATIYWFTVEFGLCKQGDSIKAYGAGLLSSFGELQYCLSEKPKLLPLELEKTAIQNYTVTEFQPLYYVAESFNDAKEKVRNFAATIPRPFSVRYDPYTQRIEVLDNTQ
The experiment is described as follows: ANS-monitored thermal unfolding of PAH103-428. The class given is binding. The settings on record: for ΔT0.5 PAH103-428 / T0.5 PAH103-428: 100 μM compound; for ΔT0.5 PAH103-428: vs no ligand; for T0.5 PAH103-428: mean ± SD; for stabilization of PAH103-428: 100 μM ligand. Here is the method: HTS for ligand-induced PAH stabilization was performed by monitoring the thermal denaturation of recombinant pure PAH protein in the presence of the extrinsic fluorescent probe 8-anilino 1-naphtalene sulfonic acid (ANS; Aldrich). HTS experiments were performed in a FluoDia T70 High Temperature Fluorescence Microplate Reader (Photon Technology International). Protein-ligand solutions (200 uL) were dispensed into 96-well microplates (ThermoFast®96 Skirted from Abgene) and overlayed with mineral oil. Protein solutions contained 0.1 mg/ml PAH (2 μM in PAH subunit) in 20 mM Hepes 200 mM NaCl pH 7.0 and 100 μM ANS. Ligands were added in DMSO, at 100 μM and 2.5% final concentration, respectively. Control experiments in the absence of DMSO and/or ligands were routinely performed in each microplate. Ligands (from MayBridge HitFinder™ Collection Database) were manually added to the microplates containing the protein solutions and incubated at 25° C. for 30 min before loading them onto the microplate reader. Thermal denaturation was monitored by following the increase in ANS fluorescence intensity due to protein unfolding λexc=395 and λern=500 nm; filters (Matulis D, et. Al., Biochemistry 2005, 44(13):5258-66). Fluorescence was registered in the 25-75° C. range, at a 1° C./min scan rate and allowing the system to equilibrate at each temperature for 1 min before fluorescence acquisition The experiments were real-time monitored using the software provided by the manufacturer. After smoothing and normalization of the experimental data, ligand induced stabilization was screened by estimation of the T0.5 as midpoint temperature of the transition defined as the temperature where half of the unfolded fluorescence signal (fu) is experimentally observed, using a home-built software written in C++ and the following expression (equation 1): […]
Additional thermal denaturation experiments were performed on a Cary Eclipse fluorescence spectrophotometer equipped with a temperature controlled Peltier multicell holder (Varian). Samples containing PAH (2 μM subunit) in 20 mM NaHepes, 200 mM NaCl, pH 7.0, 100 μM ANS, 2.5% DMSO and 0-100 μM ligands were incubated at room temperature for 30 min to allow equilibration prior to measurements. Thermal denaturation was monitored by following changes in ANS fluorescence emission (excitation at 395 and emission at 500 nm; slits 10 nm) at a 1 K/min in a 20-80° C. range. Each run contained 4 different samples, including a control in the absence of ligand. Data analysis was performed by fitting of the experimental fluorescence to equation 1.
Similar ligand-induced stabilization experiments were performed using i) a double truncated form of PAH equivalent to the catalytic domain (PAH103-428) lacking both the regulatory N-terminal domain and the tetramerization motif and existing as a functional dimmer and ii) the R68S-PAH mutant, associated to mild PKU and one of the few PKU mutants that display enough stability to be purified as a stable tetramer.

For the next experiment, the target named is T2, wt-PAH (Homo sapiens, UniProt P00439).
T2 construct: made in house; host or cells: E. coli
T2 sequence (P00439 1-452): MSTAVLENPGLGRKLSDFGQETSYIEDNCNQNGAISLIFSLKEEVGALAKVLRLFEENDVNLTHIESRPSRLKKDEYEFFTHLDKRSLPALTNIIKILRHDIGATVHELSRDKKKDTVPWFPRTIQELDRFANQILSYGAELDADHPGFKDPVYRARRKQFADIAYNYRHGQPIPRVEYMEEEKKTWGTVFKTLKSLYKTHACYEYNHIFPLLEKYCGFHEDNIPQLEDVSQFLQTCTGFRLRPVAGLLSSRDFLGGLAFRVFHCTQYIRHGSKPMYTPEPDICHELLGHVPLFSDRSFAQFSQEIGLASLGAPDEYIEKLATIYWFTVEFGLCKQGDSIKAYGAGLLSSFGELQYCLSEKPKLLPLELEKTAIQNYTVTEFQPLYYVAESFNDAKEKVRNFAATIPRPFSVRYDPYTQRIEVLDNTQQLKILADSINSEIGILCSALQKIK
The experiment is described as follows: Quenching of PAH Trp-emission fluorescence. In kind it is binding. The settings on record: apparent affinity, data not shown; read-out: ligand concentration inducing a 50% decrease in Trp-fluorescence. The protocol:
As expected, the stabilizing effect was concentration dependent for all four of them, being significant at 25 μM for compounds 11 and 13 (FIG. 2). […] The apparent affinities of wt-PAH for these four ligands were further studied by monitoring quenching effects of these ligands on PAH Trp-emission fluorescence (not shown). Ligands 11 and 13 induced significant fluorescence quenching, inducing a 50% decrease in Trp-fluorescence at ˜30 and ˜3 μM for ligands 11 and 13, respectively.

Consider `Cc1onc(-c2ccccc2)c1-c1n[nH]c(N)c1C#N` [Compound 5, 5-amino-3-(5-methyl-3-phenyl-4-isoxazolyl)-1H-pyrazole-4-carbonitrile], for which, in experiment [1], the “ΔT0.5 PAH103-428” value stood at 4.3 °C and the “T0.5 PAH103-428” value stood at 49.2 ± 1.2 °C.
As for `Cn1cnc([N+](=O)[O-])c1N1CCN(C(c2ccccc2)c2ccccc2)CC1` [Compound 6, 1-benzhydryl-4-(1-methyl-4-nitro-1H-imidazol-5-yl)piperazine], in experiment [1], the “ΔT0.5 PAH103-428” value amounted to 8.4 °C, the “T0.5 PAH103-428” value came to 53.3 ± 1.5 °C and the “stabilization of PAH103-428” value is recorded as “significantly stabilized”.
In the case of `Nc1c(-c2ccc3ccccc3n2)c2ccc([N+](=O)[O-])cc2c(=O)n1Cc1ccccc1` [Compound 11, 3-amino-2-benzyl-7-nitro-4-(2-quinolyl)-1,2-dihydroisoquinolin-1-one], in experiment [1], the “ΔT0.5 PAH103-428” value was found to be 10.1 °C, the “T0.5 PAH103-428” value is 55.0 ± 1.3 °C and the “stabilization of PAH103-428” value is “significantly stabilized”. The EC50 on wt-PAH was roughly 30 µM.
For `Cc1ccnc(-n2c(=S)[nH]c3sc(C)c(C)c3c2=O)c1` [Compound 13, 5,6-dimethyl-3-(4-methyl-2-pyridinyl)-2-thioxo-2,3 dihydrothieno[2,3-d]pyrimidin-4(1H)-one] the same measures were 1.2 °C, 46.1 ± 0.7 °C, “only a slight stabilized” and roughly 3 µM.
